Assay results: the kinase profiling compilation of Christmann-Franck et al. (2016)

What was measured:
Assay in all cases: radiometric filter-binding kinase assay, Kinase HotSpot
Details in all cases: compound 0.5 µM; ATP 10 µM
MKNK2 (human) = MKNK2 (human) (UniProt Q9HBH9)
CLK4 (human) = CLK4 (human) (UniProt Q9HAZ1)
PRKCB2 (human) = PRKCB2 (human) (UniProt P05771)
NLK (human) = NLK (human) (UniProt Q9UBE8)
EPHB1 (human) = EPHB1 (human) (UniProt P54762)
FER (human) = FER (human) (UniProt P16591)
CDK2 CCNE1 (human) = CDK2 CCNE1 (human) (UniProt P24941+P24864)
GSK3B (human) = GSK3B (human) (UniProt P49841)
TSSK2 (human) = TSSK2 (human) (UniProt Q96PF2)
Chain of TSSK2 (human) (Q96PF2 whole entry, looked up): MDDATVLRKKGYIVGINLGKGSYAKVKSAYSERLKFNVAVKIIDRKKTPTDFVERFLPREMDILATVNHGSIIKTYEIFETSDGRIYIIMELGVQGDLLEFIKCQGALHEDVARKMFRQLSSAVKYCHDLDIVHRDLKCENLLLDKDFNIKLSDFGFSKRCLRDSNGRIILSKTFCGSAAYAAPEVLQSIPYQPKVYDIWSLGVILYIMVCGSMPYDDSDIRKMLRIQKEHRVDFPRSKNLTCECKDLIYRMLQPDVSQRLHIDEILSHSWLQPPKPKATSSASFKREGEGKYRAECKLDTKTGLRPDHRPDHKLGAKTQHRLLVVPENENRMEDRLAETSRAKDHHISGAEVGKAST

CDK5 CDK5R1 p35 (human) = CDK5 CDK5R1 p35 (human) (UniProt Q00535+Q15078)
MARK4 (human) = MARK4 (human) (UniProt Q96L34)
TAOK3 (human) = TAOK3 (human) (UniProt Q9H2K8)
Chain of TAOK3 (human) (Q9H2K8 whole entry, looked up): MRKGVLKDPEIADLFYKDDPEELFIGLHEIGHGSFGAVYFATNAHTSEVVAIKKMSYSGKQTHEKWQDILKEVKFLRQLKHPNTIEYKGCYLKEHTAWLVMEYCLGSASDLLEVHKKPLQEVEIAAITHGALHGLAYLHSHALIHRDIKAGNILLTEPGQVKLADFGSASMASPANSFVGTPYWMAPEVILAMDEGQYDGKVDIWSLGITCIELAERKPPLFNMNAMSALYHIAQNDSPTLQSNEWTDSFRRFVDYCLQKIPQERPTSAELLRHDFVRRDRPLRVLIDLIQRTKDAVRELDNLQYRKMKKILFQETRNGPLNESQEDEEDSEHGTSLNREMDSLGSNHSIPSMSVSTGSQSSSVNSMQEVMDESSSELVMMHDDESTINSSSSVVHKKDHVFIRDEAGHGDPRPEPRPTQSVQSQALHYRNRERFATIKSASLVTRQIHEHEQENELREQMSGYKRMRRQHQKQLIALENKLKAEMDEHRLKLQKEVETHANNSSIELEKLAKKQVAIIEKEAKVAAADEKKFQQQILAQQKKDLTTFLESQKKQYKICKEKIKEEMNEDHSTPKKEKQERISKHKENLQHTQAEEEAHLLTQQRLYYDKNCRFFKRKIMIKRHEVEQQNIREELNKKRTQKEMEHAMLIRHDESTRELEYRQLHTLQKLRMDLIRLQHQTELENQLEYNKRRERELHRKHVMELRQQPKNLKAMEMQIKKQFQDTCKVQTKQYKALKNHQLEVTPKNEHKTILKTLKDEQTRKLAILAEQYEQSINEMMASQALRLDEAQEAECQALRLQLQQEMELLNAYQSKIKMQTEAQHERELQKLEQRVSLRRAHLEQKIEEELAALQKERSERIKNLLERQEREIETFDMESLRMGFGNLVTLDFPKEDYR

MAP4K4 (human) = MAP4K4 (human) (UniProt O95819)
VRK1 (human) = VRK1 (human) (UniProt Q99986)
AXL (human) = AXL (human) (UniProt P30530)
Chain of AXL (human) (P30530 whole entry, looked up): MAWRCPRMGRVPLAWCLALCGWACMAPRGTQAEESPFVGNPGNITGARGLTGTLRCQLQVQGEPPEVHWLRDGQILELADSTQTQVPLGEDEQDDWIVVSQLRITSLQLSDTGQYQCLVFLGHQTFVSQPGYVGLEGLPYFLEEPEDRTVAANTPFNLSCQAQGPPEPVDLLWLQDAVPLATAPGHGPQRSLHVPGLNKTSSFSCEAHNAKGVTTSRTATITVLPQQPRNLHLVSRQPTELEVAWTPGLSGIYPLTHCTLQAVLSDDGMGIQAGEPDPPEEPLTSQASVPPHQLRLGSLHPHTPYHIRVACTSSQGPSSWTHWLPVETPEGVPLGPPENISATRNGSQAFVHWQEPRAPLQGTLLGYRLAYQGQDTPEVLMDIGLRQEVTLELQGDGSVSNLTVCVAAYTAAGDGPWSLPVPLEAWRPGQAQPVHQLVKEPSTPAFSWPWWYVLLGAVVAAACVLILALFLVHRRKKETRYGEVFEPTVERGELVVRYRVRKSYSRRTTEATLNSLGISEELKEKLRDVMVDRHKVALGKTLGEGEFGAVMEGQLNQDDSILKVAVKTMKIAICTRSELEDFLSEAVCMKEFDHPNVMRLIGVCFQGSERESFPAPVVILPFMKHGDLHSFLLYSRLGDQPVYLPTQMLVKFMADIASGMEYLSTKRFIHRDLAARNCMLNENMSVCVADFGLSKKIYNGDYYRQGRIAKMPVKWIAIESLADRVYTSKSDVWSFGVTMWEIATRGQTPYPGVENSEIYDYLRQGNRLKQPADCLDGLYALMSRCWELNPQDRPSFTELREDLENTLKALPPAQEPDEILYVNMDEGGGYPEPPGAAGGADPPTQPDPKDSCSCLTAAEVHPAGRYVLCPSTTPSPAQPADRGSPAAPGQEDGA

PRKCB1 (human) = PRKCB1 (human) (UniProt P05771)
MAPKAPK3 (human) = MAPKAPK3 (human) (UniProt Q16644)
HIPK1 (human) = HIPK1 (human) (UniProt Q86Z02)
RPS6KA3 KD1 KD2 (human) = RPS6KA3 KD1 KD2 (human) (UniProt P51812)
MAPKAPK2 (human) = MAPKAPK2 (human) (UniProt P49137)
Chain of MAPKAPK2 (human) (P49137 whole entry, looked up): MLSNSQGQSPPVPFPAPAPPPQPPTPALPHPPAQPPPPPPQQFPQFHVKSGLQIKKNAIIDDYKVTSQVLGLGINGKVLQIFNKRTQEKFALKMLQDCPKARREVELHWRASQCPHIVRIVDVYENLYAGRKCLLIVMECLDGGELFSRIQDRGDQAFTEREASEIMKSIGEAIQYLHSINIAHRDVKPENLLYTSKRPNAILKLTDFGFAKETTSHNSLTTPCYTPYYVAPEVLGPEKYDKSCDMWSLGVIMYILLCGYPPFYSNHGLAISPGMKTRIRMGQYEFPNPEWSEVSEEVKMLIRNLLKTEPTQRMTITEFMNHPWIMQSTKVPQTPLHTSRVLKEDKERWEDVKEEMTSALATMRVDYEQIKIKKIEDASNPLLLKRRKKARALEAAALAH

GRK4 (human) = GRK4 (human) (UniProt P32298)
STK39 (human) = STK39 (human) (UniProt Q9UEW8)
PAK6 (human) = PAK6 (human) (UniProt Q9NQU5)
MARK2 (human) = MARK2 (human) (UniProt Q7KZI7)
MAPKAPK5 (human) = MAPKAPK5 (human) (UniProt Q8IW41)
PDPK1 (human) = PDPK1 (human) (UniProt O15530)
Chain of PDPK1 (human) (O15530 whole entry, looked up): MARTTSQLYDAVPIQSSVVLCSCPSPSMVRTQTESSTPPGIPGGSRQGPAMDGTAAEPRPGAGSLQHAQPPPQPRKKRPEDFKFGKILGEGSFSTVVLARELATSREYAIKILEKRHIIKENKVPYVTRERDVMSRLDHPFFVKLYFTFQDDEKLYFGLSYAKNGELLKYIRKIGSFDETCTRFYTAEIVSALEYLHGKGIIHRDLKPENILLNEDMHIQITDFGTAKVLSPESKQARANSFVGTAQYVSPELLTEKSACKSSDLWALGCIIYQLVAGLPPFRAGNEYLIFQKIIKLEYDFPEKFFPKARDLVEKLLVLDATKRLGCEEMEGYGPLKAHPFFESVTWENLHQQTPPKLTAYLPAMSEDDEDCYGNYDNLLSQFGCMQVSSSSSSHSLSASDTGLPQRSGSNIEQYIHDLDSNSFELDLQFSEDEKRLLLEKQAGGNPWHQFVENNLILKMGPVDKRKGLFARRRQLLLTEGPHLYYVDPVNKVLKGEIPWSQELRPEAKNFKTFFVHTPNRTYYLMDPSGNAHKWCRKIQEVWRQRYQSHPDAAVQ

HIPK4 (human) = HIPK4 (human) (UniProt Q8NE63)
EPHA3 (human) = EPHA3 (human) (UniProt P29320)
PAK1 (human) = PAK1 (human) (UniProt Q13153)
LIMK1 (human) = LIMK1 (human) (UniProt P53667)
DCLK2 (human) = DCLK2 (human) (UniProt Q8N568)
GRK6 (human) = GRK6 (human) (UniProt P43250)
EGFR (human) = EGFR (human) (UniProt P00533)
TTK (human) = TTK (human) (UniProt P33981)
MUSK (human) = MUSK (human) (UniProt O15146)
SRMS (human) = SRMS (human) (UniProt Q9H3Y6)
CLK2 (human) = CLK2 (human) (UniProt P49760)
CAMK2D (human) = CAMK2D (human) (UniProt Q13557)
EPHA2 (human) = EPHA2 (human) (UniProt P29317)
Chain of EPHA2 (human) (P29317 whole entry, looked up): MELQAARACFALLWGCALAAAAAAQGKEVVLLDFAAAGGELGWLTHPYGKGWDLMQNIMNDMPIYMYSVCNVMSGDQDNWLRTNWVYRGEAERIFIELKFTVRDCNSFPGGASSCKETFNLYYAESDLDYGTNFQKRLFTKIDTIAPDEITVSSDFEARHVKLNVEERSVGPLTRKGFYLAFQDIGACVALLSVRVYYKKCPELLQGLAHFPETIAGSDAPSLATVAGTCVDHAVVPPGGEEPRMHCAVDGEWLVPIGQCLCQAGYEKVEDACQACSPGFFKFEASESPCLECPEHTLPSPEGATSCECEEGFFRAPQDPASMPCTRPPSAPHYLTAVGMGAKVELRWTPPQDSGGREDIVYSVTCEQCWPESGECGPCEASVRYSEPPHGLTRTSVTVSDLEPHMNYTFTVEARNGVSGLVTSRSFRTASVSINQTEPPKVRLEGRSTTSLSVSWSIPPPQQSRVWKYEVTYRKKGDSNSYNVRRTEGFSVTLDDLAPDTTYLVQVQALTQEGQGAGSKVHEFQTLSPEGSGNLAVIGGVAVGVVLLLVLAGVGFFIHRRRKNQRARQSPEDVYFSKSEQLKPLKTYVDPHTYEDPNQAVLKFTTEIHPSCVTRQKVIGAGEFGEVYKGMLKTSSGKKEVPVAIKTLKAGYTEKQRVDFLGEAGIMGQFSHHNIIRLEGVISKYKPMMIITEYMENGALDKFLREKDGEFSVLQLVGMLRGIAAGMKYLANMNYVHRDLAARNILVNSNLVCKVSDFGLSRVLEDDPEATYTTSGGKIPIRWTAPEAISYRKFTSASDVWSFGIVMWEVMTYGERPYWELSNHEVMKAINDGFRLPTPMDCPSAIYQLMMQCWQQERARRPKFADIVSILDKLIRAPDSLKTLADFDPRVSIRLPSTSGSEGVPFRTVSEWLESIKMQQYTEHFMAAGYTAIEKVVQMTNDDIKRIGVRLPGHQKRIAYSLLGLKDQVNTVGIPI

MAP4K2 (human) = MAP4K2 (human) (UniProt Q12851)
Chain of MAP4K2 (human) (Q12851 whole entry, looked up): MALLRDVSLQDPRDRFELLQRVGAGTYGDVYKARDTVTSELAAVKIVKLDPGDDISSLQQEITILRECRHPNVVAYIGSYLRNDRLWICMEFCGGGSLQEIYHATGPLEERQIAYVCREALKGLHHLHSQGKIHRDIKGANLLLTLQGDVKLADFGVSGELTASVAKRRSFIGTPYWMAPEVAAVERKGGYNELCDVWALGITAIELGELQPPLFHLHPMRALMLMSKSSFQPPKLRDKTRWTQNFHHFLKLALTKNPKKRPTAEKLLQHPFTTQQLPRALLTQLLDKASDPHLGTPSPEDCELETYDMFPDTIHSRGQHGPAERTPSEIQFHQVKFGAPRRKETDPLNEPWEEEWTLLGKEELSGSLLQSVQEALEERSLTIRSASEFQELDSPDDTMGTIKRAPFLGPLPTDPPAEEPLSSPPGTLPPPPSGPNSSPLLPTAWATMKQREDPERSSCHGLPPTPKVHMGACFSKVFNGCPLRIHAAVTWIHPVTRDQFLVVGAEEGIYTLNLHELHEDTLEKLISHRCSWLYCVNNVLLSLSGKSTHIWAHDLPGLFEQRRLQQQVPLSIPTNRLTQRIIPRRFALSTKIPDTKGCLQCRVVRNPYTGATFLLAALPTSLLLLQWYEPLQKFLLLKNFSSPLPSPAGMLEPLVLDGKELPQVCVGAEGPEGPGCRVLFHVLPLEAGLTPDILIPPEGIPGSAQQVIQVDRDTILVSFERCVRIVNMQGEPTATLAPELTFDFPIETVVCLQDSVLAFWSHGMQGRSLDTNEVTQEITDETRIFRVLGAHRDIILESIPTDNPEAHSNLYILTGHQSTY

LCK (human) = LCK (human) (UniProt P06239)
DAPK2 (human) = DAPK2 (human) (UniProt Q9UIK4)

## COc1ccc(S(=O)(=O)N(CCO)c2ccccc2CN(C)C/C=C/c2ccc(Cl)cc2)cc1
MKNK2 (human)
  residual activity: 102%
CLK4 (human)
  residual activity: 96%
PRKCB2 (human)
  residual activity: 102%
NLK (human)
  residual activity: 101%
EPHB1 (human)
  residual activity: 93.3%
FER (human)
  residual activity: 97.1%
CDK2 CCNE1 (human)
  residual activity: 94%
GSK3B (human)
  residual activity: 102%
TSSK2 (human)
  residual activity: 107%
CDK5 CDK5R1 p35 (human)
  residual activity: 99.9%
MARK4 (human)
  residual activity: 102%
TAOK3 (human)
  residual activity: 91.2%
MAP4K4 (human)
  residual activity: 97.6%
VRK1 (human)
  residual activity: 96.4%
AXL (human)
  residual activity: 104%
PRKCB1 (human)
  residual activity: 97.7%
MAPKAPK3 (human)
  residual activity: 101%
HIPK1 (human)
  residual activity: 106%
RPS6KA3 KD1 KD2 (human)
  residual activity: 98%
MAPKAPK2 (human)
  residual activity: 102%
GRK4 (human)
  residual activity: 94%
STK39 (human)
  residual activity: 92.8%
PAK6 (human)
  residual activity: 101%
MARK2 (human)
  residual activity: 95.5%
MAPKAPK5 (human)
  residual activity: 100%
PDPK1 (human)
  residual activity: 93.7%
HIPK4 (human)
  residual activity: 101%
EPHA3 (human)
  residual activity: 102%
PAK1 (human)
  residual activity: 96%
LIMK1 (human)
  residual activity: 102%
DCLK2 (human)
  residual activity: 99.1%
GRK6 (human)
  residual activity: 106%
EGFR (human)
  residual activity: 106%
TTK (human)
  residual activity: 83.3%
MUSK (human)
  residual activity: 94.7%
SRMS (human)
  residual activity: 101%
CLK2 (human)
  residual activity: 96.7%
CAMK2D (human)
  residual activity: 91.8%
EPHA2 (human)
  residual activity: 104%
MAP4K2 (human)
  residual activity: 92.6%
LCK (human)
  residual activity: 95.5%
DAPK2 (human)
  residual activity: 107%

## Cc1nc(-c2ccccc2)c(-c2ccncc2)o1
MKNK2 (human)
  residual activity: 90.5%
CLK4 (human)
  residual activity: 121%
PRKCB2 (human)
  residual activity: 88.4%
NLK (human)
  residual activity: 79.4%
EPHB1 (human)
  residual activity: 107%
FER (human)
  residual activity: 84.9%
CDK2 CCNE1 (human)
  residual activity: 93.4%
GSK3B (human)
  residual activity: 105%
TSSK2 (human)
  residual activity: 90.1%
CDK5 CDK5R1 p35 (human)
  residual activity: 104%
MARK4 (human)
  residual activity: 103%
TAOK3 (human)
  residual activity: 99%
MAP4K4 (human)
  residual activity: 85.1%
VRK1 (human)
  residual activity: 98.5%
AXL (human)
  residual activity: 91.1%
PRKCB1 (human)
  residual activity: 95.2%
MAPKAPK3 (human)
  residual activity: 94.7%
HIPK1 (human)
  residual activity: 102%
RPS6KA3 KD1 KD2 (human)
  residual activity: 103%
MAPKAPK2 (human)
  residual activity: 101%
GRK4 (human)
  residual activity: 94.3%
STK39 (human)
  residual activity: 97.1%
PAK6 (human)
  residual activity: 103%
MARK2 (human)
  residual activity: 94.3%
MAPKAPK5 (human)
  residual activity: 99.2%
PDPK1 (human)
  residual activity: 96.9%
HIPK4 (human)
  residual activity: 102%
EPHA3 (human)
  residual activity: 109%
PAK1 (human)
  residual activity: 98.7%
LIMK1 (human)
  residual activity: 95.5%
DCLK2 (human)
  residual activity: 97%
GRK6 (human)
  residual activity: 105%
EGFR (human)
  residual activity: 89.4%
TTK (human)
  residual activity: 100%
MUSK (human)
  residual activity: 95.9%
SRMS (human)
  residual activity: 102%
CLK2 (human)
  residual activity: 98.2%
CAMK2D (human)
  residual activity: 94.2%
EPHA2 (human)
  residual activity: 104%
MAP4K2 (human)
  residual activity: 106%
LCK (human)
  residual activity: 99.7%
DAPK2 (human)
  residual activity: 106%

## c1ccc2c(-c3ccncc3)c[nH]c2c1
MKNK2 (human)
  residual activity: 39.2%
CLK4 (human)
  residual activity: 101%
PRKCB2 (human)
  residual activity: 89.5%
NLK (human)
  residual activity: 95.1%
EPHB1 (human)
  residual activity: 108%
FER (human)
  residual activity: 91.6%
CDK2 CCNE1 (human)
  residual activity: 91.7%
GSK3B (human)
  residual activity: 104%
TSSK2 (human)
  residual activity: 96.9%
CDK5 CDK5R1 p35 (human)
  residual activity: 96%
MARK4 (human)
  residual activity: 94.7%
TAOK3 (human)
  residual activity: 103%
MAP4K4 (human)
  residual activity: 54.4%
VRK1 (human)
  residual activity: 101%
AXL (human)
  residual activity: 99.8%
PRKCB1 (human)
  residual activity: 95.1%
MAPKAPK3 (human)
  residual activity: 97.8%
HIPK1 (human)
  residual activity: 97.4%
RPS6KA3 KD1 KD2 (human)
  residual activity: 97.4%
MAPKAPK2 (human)
  residual activity: 101%
GRK4 (human)
  residual activity: 94.9%
STK39 (human)
  residual activity: 99.8%
PAK6 (human)
  residual activity: 104%
MARK2 (human)
  residual activity: 102%
MAPKAPK5 (human)
  residual activity: 96.1%
PDPK1 (human)
  residual activity: 96.6%
HIPK4 (human)
  residual activity: 93.8%
EPHA3 (human)
  residual activity: 107%
PAK1 (human)
  residual activity: 99.1%
LIMK1 (human)
  residual activity: 92%
DCLK2 (human)
  residual activity: 98.1%
GRK6 (human)
  residual activity: 103%
EGFR (human)
  residual activity: 97.3%
TTK (human)
  residual activity: 112%
MUSK (human)
  residual activity: 78.9%
SRMS (human)
  residual activity: 107%
CLK2 (human)
  residual activity: 101%
CAMK2D (human)
  residual activity: 103%
EPHA2 (human)
  residual activity: 106%
MAP4K2 (human)
  residual activity: 101%
LCK (human)
  residual activity: 102%
DAPK2 (human)
  residual activity: 108%
